Here are results for two compounds from ChEMBL document CHEMBL5113541, “Design, Synthesis, and Monoamine Oxidase B Selective Inhibitory Activity of N-Arylated Heliamine Analogues” (ACS Med Chem Lett, 2022).

Structures are written as SMILES.

For data set [1], the target named is T1, Amine oxidase [flavin-containing] A (Homo sapiens, UniProt P21397).
T1 sequence (P21397 whole entry): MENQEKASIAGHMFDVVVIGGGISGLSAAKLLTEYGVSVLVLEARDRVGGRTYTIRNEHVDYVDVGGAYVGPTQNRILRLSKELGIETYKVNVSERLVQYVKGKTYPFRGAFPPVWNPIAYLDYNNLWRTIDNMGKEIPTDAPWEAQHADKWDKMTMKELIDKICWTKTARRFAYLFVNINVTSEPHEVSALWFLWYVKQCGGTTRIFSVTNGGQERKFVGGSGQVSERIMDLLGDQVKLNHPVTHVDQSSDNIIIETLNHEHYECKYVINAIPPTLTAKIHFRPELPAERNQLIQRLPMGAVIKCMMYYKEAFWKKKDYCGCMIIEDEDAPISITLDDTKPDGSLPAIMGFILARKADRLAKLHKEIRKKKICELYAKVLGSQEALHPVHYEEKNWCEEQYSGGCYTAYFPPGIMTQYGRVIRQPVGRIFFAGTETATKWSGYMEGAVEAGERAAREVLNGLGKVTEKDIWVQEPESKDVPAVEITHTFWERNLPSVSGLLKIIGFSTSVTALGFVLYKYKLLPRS
The data set is described as follows: Inhibition of recombinant human MAO-A.

The target of data set [2] is T2, Amine oxidase [flavin-containing] B (Mus musculus, UniProt Q8BW75).
T2 sequence (Q8BW75 whole entry): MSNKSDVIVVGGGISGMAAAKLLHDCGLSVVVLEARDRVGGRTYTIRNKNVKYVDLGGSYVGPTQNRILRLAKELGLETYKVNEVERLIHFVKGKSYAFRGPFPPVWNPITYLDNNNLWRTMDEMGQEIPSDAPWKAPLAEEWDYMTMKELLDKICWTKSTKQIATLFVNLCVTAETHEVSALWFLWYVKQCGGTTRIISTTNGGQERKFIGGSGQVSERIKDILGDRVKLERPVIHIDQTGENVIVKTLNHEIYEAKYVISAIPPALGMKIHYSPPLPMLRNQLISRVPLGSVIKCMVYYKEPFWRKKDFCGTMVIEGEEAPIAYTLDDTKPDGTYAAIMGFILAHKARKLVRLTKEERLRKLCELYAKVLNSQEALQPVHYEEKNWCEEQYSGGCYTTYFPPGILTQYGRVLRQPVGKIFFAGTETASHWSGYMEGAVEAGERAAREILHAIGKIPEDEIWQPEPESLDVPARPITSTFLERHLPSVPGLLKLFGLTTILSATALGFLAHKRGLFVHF
The data set is described as follows: Inhibition of mouse MAO-B.

The target of data set [3] is T3, MAO-B (amine oxidase [flavin-containing] B) (Homo sapiens, UniProt P27338).
T3 sequence (P27338 whole entry): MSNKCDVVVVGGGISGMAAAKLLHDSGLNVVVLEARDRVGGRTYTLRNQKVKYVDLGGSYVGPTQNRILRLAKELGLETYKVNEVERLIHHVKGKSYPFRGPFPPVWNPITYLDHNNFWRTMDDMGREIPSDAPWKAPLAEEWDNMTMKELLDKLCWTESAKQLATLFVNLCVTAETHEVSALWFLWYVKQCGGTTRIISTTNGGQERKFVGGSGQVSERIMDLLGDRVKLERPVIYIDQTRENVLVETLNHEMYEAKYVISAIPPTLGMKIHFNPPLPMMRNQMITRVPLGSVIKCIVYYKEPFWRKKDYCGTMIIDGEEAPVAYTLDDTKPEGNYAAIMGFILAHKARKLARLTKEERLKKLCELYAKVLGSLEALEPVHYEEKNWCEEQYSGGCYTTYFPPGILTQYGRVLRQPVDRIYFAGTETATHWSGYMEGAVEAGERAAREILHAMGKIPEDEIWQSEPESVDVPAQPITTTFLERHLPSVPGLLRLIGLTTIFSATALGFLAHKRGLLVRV
The data set is described as follows: Inhibition of human MAO-B assessed as residual activity at 10 uM relative to control. The following applies: read-out: Activity.

In data set [4] the target is T4, Amine oxidase [flavin-containing] A (Mus musculus, UniProt Q64133).
T4 sequence (Q64133 whole entry): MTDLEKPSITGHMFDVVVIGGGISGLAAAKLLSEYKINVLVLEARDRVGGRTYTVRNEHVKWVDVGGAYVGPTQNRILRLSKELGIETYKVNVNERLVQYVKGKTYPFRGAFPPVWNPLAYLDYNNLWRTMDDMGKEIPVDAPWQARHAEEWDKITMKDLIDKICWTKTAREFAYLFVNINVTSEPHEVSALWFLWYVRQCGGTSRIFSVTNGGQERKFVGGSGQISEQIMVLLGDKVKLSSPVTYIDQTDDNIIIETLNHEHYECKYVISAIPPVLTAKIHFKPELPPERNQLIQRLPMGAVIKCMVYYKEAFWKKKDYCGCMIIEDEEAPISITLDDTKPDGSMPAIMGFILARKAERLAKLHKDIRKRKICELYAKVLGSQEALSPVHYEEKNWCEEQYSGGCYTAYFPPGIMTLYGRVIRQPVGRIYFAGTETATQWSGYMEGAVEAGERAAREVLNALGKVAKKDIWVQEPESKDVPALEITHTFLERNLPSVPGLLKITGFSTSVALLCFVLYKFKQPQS
The data set is described as follows: Inhibition of mouse MAO-A.

As a reminder, the IC50 is the point on the concentration scale where inhibition reaches its midpoint. As for `COc1cc2c(cc1OC)CN(CCCOc1ccc(C(C)=O)c(O)c1)CC2`, the concentration for half-maximal inhibition (IC50) in data set [1] worked out at 8.1 µM.

Turning to `COc1cc2c(cc1OC)CNCC2`, the results for the IC50 in data set [2] and in data set [4] were over 1000 µM and over 100 µM, respectively. Moreover, the activity at 10 µM in data set [3] is 96%.
